From ChEMBL document CHEMBL4627390, “Effect of Temperature on 1H NMR Spectra, Antitrypanosomal Activity, Conformational Analysis, and Molecular Docking of Curine Derivatives from Berberis brevissima” (2020)
Values after ≈ are worked out from the molar mass of the structure shown.

Assays:
Format in all cases: functional
[1] = system: Trypanosoma brucei brucei; experiment: Antitrypanosomal activity against Trypanosoma brucei brucei TC427 trypomastigotes after 24 hrs by AlamarBlue assay; details: TC427, 24 h
[2] = system: Trypanosoma brucei brucei; experiment: Antitrypanosomal activity against Trypanosoma brucei brucei TC427 trypomastigotes assessed percent viability at 20 ug/ml after 24 hrs by AlamarBlue assay relative to DMSO
[3] = system: Trypanosoma brucei brucei; experiment: Antitrypanosomal activity against Trypanosoma brucei brucei

| MIC [3] | SMILES | MIC [1] | Activity [2] |
| --- | --- | --- | --- |
|  | COc1cc2c3cc1Oc1cc(ccc1O)C[C@@H]1c4c(cc(OC)c(O)c4Oc4ccc(cc4)C[C@H]3N(C)CC2)CCN1C | 3.8 µM (≈ 2.26 µg/mL) | 1.9% |
|  | COc1cc2c3cc1Oc1cc(ccc1O)C[C@@H]1c4c(cc(OC)c(OC)c4Oc4ccc(cc4)C[C@H]3N(C)CC2)CCN1C | 2.6 µM (≈ 1.58 µg/mL) | 1.6% |
| 27.6 µM (≈ 12.6 µg/mL) | COc1ccc2c(c1OC)C(C(Cl)(Cl)Cl)N1CCc3cc4c(cc3C1=C2)OCO4 (stereo not given) |  |  |
|  | COc1cc2c3cc1Oc1cc(ccc1OC(C)=O)C[C@@H]1c4c(cc(OC)c(OC)c4Oc4ccc(cc4)C[C@H]3N(C)CC2)CCN1C | 2.3 µM (≈ 1.5 µg/mL) | 1.4% |
|  | COc1cc2c3cc1Oc1cc(cc([N+](=O)[O-])c1O)C[C@@H]1c4c(cc(OC)c(OC)c4Oc4ccc(cc4)C[C@H]3N(C)CC2)CCN1C | 2.2 µM (≈ 1.44 µg/mL) | 1.5% |
| 74.4 µM | COc1ccc2cc3[n+](cc2c1OC)CCc1cc2c(cc1-3)OCO2 [BERBERINE] |  |  |
